In patent publication US20170305922A1, “CARM1 INHIBITORS AND USES THEREOF” (Epizyme, Inc., priority 2014, published 2017):

How the values were obtained:
[1] = system: asymmetric di-methyl PABP1 in RKO cells; test: RKO methylation assay: In Cell Western (ICW) for asymmetric di-methyl PABP1 (PABP1me2a); conditions: Homo sapiens, RKO, 48 h, Cellular-based (PABP1me2a) ICW (In Cell Western) assay
Summary of the method: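 In-cell western on compound-exposed RKO cells (48 hours): asymmetric di-methyl PABP1 detected by antibody at 800 nm, DNA content by DRAQ5 at 700 nm. Percent inhibition from signal ratios against DMSO (minimum) and 20 μM reference compound (maximum) wells; IC50 curves fitted from triplicates.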

[2] = target: T1, Human CARM1 (PRMT4) (Homo sapiens, UniProt Q86X55); test: CARM1 enzyme assay on peptide substrates (3H-SAM Flashplate); conditions: Biochemical assay; CARM1 0.25 nM, 3H-SAM 30 nM, peptide 250 nM; read-out: Biochem IC50
T1 construct: Flag-CARM1-His was eluted with 200 ug/ml FLAG peptide in buffer A; made in house; host or cells: HEK 293F cells infected with recombinant baculovirus (pFastBacMam)
T1 sequence (Q86X55 1-585 isoform Q86X55-1): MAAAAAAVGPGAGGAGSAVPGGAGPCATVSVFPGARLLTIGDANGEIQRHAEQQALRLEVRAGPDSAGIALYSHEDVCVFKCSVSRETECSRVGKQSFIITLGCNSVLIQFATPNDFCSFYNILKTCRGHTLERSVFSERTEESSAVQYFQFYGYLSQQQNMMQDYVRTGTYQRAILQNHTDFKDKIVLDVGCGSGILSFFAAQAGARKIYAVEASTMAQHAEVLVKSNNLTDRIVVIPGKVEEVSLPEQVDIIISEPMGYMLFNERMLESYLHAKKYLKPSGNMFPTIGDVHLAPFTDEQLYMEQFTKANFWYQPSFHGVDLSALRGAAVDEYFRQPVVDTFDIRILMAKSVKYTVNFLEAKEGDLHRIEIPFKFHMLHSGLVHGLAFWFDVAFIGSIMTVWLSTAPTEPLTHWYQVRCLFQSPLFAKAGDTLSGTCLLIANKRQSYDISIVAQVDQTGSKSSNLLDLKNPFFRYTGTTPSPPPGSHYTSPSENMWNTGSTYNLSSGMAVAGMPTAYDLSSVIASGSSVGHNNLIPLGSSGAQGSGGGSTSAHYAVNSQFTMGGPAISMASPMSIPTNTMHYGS

IC50 [1] [nM]	IC50 [2] [nM]	SMILES
89.1	7.42	CNC[C@@H](O)COc1ccc(Cl)c(-c2nc(-c3c(C)noc3C)c(C)c(N3CC4(CC(N(C)CC(F)(F)F)C4)C3)n2)c1 [Example 271]
428	9	CNC[C@@H](O)COc1ccc(Cl)c(-c2nc(-c3cnn(CC(F)(F)F)c3)c(C)c(-c3c(C)noc3C)n2)c1 [Example 118]
137	6.4	CNC[C@@H](O)COc1ccc(Cl)c(-c2nc(-c3c(C)noc3C)c(C)c(N3CC4(CCCN(C(=O)OC)C4)C3)n2)c1 [Example 296]
64.4	2.46	CNC[C@@H](O)COc1ccc(Cl)c(-c2nc(-c3c(C)c(Br)nn3C)c(C)c(N3CC4(CC(C#N)C4)C3)n2)c1 [Example 333]
150	5.2	CNC[C@@H](O)COc1ccc(Cl)c(-c2nc(-c3c(C)noc3C)c(C)c(N3CC(C)(C(=O)N(C)C)C3)n2)c1 [Example 188]
181	6.3	CNC[C@@H](O)COc1ccc(C(F)(F)F)c(-c2nc(-c3c(C)noc3C)c(C)c(N3Cc4cn(C(C)C)nc4C3)n2)c1 [Example 22]
222	4.6	CCn1ncc(C)c1-c1nc(-c2cc(OC[C@H](O)CNC)ccc2Cl)nc(N2Cc3cncnc3C2)c1C [Example 88]
15	1.9	CNC[C@@H](O)COc1ccc(Cl)c(-c2nc(-c3c(C)c(Cl)nn3C)c(C)c(N3Cc4cnc(N5CCC5)nc4C3)n2)c1 [Example 153]
193	6.51	CNC[C@@H](O)COc1ccc(Cl)c(-c2nc(-c3c(C)noc3C)c(C)c(N3CC(C)(COC)C3)n2)c1 [Example 251]
37.1	2.39	CNC[C@@H](O)COc1ccc(Cl)c(-c2nc(-c3c(C)noc3C)c(C)c(N3Cc4ccc(O[C@H]5CCOC5)nc4C3)n2)c1 [Example 254]
7200	37.2	CNC[C@@H](O)COc1cccc(-c2nc(-c3c(C)noc3C)c(C)c(N3CC4(CCN(C(=O)OC)CC4)C3)n2)c1Cl [Example 350]
174	5.8	CCc1onc(C)c1-c1nc(-c2cc(OC[C@H](O)CNC)ccc2Cl)nc(N2CC3(CC(OC)C3)C2)c1C [Example 171]
60	9.3	CNC[C@@H](O)COc1ccc(Cl)c(-c2nc(-c3c(C)noc3C)c(C)c(N3CC4(CC(OC)C4)C3)n2)c1 [Example 79]
381	2.6	CNC[C@@H](O)COc1ccc(Cl)c(-c2nc(-c3c(C)noc3C)c(C)c(N3Cc4cnc(NCCO)nc4C3)n2)c1 [Example 197]
544	4.11	CNC[C@@H](O)COc1ccc(Cl)c(-c2nc(-c3c(C)noc3C)c(C)c(N3CC4(CCC4F)C3)n2)c1 (stereo partly shown) [Example 278]
29	4.3	CNC[C@@H](O)COc1ccc(Cl)c(-c2nc(-c3c(C)c(Cl)nn3C)c(C)c(N3CC4(CN(CC(F)(F)F)C4)C3)n2)c1 [Example 233]
356	10.8	CNC[C@@H](O)COc1ccc(Cl)c(-c2nc(-c3c(C)noc3C)c(C)c(N3CC4(CCN(C(C)=O)CC4)C3)n2)c1 [Example 51]
73	1.4	CNC[C@@H](O)COc1ccc(Cl)c(-c2nc(-c3c(Cl)cnn3C)c(C)c(N3Cc4cccnc4C3)n2)c1 [Example 58]
2840	6.4	CNC[C@@H](O)COc1ccc(Cl)c(-c2nc(-c3c(C)noc3C)c(C)c(N3Cc4cnn(CC(=O)N(C)C)c4C3)n2)c1 [Example 109]
> 20000	60.7	CNC[C@@H](O)COc1ccc(Cl)c(-c2nc(-c3c(C)noc3C)c(Cl)c(N3Cc4cnn(C)c4C3)n2)c1 [Example 11]
84	5.7	CCOc1ncc2c(n1)CN(c1nc(-c3cc(OC[C@H](O)CNC)ccc3Cl)nc(-c3c(C)noc3CC)c1C)C2 [Example 199]
415	5.4	CNC[C@@H](O)COc1ccc(Cl)c(-c2nc(-c3c(C)noc3C)c(C)c(N3CCN(C(=O)OC)CC3)n2)c1 [Example 216]
340	7.6	CNC[C@@H](O)COc1ccc(Cl)c(-c2nc(-c3cnn(CC(F)F)c3)c(C)c(-c3c(C)noc3C)n2)c1 [Example 119]
221	5.6	CNC[C@@H](O)COc1ccc(Cl)c(-c2nc(-c3c(C)noc3C)c(C)c(N3C[C@]4(C)CN(CC(F)F)C[C@]4(C)C3)n2)c1 [Example 71]

IC50 [1] [nM]	IC50 [2] [nM]	SMILES
65.4	2.54	CNC[C@@H](O)COc1ccc(Cl)c(-c2nc(-c3c(Cl)cnn3C)c(C)c(N3Cc4cnc(OC)nc4C3)n2)c1 [Example 339]
38	4.4	CCc1cc2c(c(C)n1)CN(c1nc(-c3cc(OC[C@H](O)CNC)ccc3Cl)nc(-c3c(C)noc3C)c1C)C2 [Example 101]
271	3.9	CNC[C@@H](O)COc1ccc(Cl)c(-c2nc(-c3c(C)noc3C)c(C)c(N3CC4(CCC(C(=O)N5CCC5)CC4)C3)n2)c1 [Example 174]
408	5	CNC[C@@H](O)COc1ccc(Cl)c(-c2nc(-c3c(C)noc3C)c(C)c(N3CC4(CCC(C(=O)N5CC(OC)C5)CC4)C3)n2)c1 [Example 173]
188	5.4	CNC[C@@H](O)COc1ccc(C(F)(F)F)c(-c2nc(-c3c(C)noc3C)c(C)c(N3Cc4cccnc4C3)n2)c1 [Example 24]
61.9	2.26	CNC[C@@H](O)COc1ccc(Cl)c(-c2nc(-c3c(C)noc3C)c(C)c(N3Cc4ccc(OCC(F)F)nc4C3)n2)c1 [Example 273]
44	2.2	CNC[C@@H](O)COc1ccc(Cl)c(-c2nc(-c3c(C)noc3C)c(C)c(N3Cc4cc(C(F)(F)F)cnc4C3)n2)c1 [Example 14]
15	2	CNC[C@@H](O)COc1ccc(Cl)c(-c2nc(-c3c(C)noc3C)c(C)c(N3Cc4cnc(N5CC(F)C5)nc4C3)n2)c1 [Example 145]
995	11.2	CNC[C@@H](O)COc1ccc(Cl)c(-c2nc(/C=C(\OC)C3CCN(C(=O)OC)CC3)c(C)c(-c3c(C)noc3C)n2)c1 [Example 95]
14	1.9	CNC[C@@H](O)COc1ccc(Cl)c(-c2nc(-c3c(C)noc3C)c(C)c(N3Cc4ccc(N5CC(OC)C5)nc4C3)n2)c1 [Example 229]
25	5.5	CNC[C@@H](O)COc1ccc(Cl)c(-c2nc(-c3c(C)noc3C)c(C)c(N3Cc4cnc(OCCOC)nc4C3)n2)c1 [Example 106]
2060	11	CNC[C@@H](O)COc1ccc(Cl)c(-c2nc(-c3c(C)noc3C)c(C)c(N3CC4(CCN(C(C)=O)C4)C3)n2)c1 [Example 63]
1150	8.8	CNC[C@@H](O)COc1ccc(Cl)c(-c2nc(-c3c(C)noc3C)c(C)c(N3Cc4cn(CC(=O)N(C)C)nc4C3)n2)c1 [Example 113]
22.9	2.17	CNC[C@@H](O)COc1ccc(Cl)c(-c2nc(-c3c(C)noc3C)c(C)c(N3Cc4ccc(N5CC(F)C5)nc4C3)n2)c1 [Example 259]
486	4.3	CC[C@H]1CN(c2nc(-c3cc(OC[C@H](O)CNC)ccc3Cl)nc(-c3c(C)noc3C)c2C)CCN1S(C)(=O)=O [Example 204]
120	5.1	CNC[C@@H](O)COc1ccc(Cl)c(-c2nc(-c3c(C)noc3C)c(C)c(N3Cc4c(n(C)c(=O)n(C)c4=O)C3C)n2)c1 (stereo partly shown) [Example 34]
1810	13.7	CNC[C@@H](O)COc1ccc(Cl)c(-c2nc(-c3c(C)noc3C)c(C)c(-n3ncc4c3CN(C(=O)OC)C4)n2)c1 [Example 122]
105	2.09	CNC[C@@H](O)COc1ccc(Cl)c(-c2nc(-c3c(C)noc3C)c(C)c(N3CC4(CC(N5CC(F)C5)C4)C3)n2)c1 [Example 280]
198	5.3	CNC[C@@H](O)COc1ccc(Cl)c(-c2nc(-c3c(C)noc3C)c(C)c(N3C[C@H]4CN(C(=O)OC)C[C@H]4C3)n2)c1 [Example 53]
1670	5.67	CNC[C@@H](O)COc1ccc(Cl)c(-c2nc(-c3c(C#N)cnn3C)c(C)c(N3Cc4cccnc4C3)n2)c1 [Example 348]
310	6.83	CNC[C@@H](O)COc1ccc(Cl)c(-c2nc(-c3c(Br)cnn3C)c(C)c(N3CC4(CN(C(=O)OC)C4)C3)n2)c1 [Example 266]
134	4.6	CCc1noc(C)c1-c1nc(-c2cc(OC[C@H](O)CNC)ccc2Cl)nc(N2Cc3cccnc3C2)c1C [Example 226]
32	2	CNC[C@@H](O)COc1ccc(Cl)c(-c2nc(-c3c(C)noc3C)c(C)c(N3Cc4ccc(Cl)nc4C3)n2)c1 [Example 39]
